The values that follow come from ChEMBL document CHEMBL1156829 (Proc Natl Acad Sci U S A, 2008).

SMILES strings stand for the structures.

The test system of data set [1] is Plasmodium falciparum. Put plainly: NOVARTIS: Inhibition of Plasmodium falciparum W2 (drug-resistant) proliferation in erythrocyte-based infection assay. Format: functional, organism-based. The following applies: Plasmodium falciparum, W2; read-out: EC50.
A short description of data set [2]: NOVARTIS: Cytotoxicity against human hepatocellular carcinoma cell line (Huh7). The format is toxicity, cell-based, Huh-7. Conditions: Huh7 cells (hepatocellular carcinoma cell line).
The test system of data set [3] is Plasmodium falciparum. Put plainly: NOVARTIS: Inhibition of Plasmodium falciparum 3D7 (drug-susceptible) proliferation in erythrocyte-based infection assay. Format: functional, organism-based. Conditions: Plasmodium falciparum, 3D7.

`Cc1ccc(N=C2NC(=O)/C(=C/c3cc(C)n(-c4cccc([N+](=O)[O-])c4)c3C)S2)cc1`: the EC50 turned out to be 985 nM in data set [1] and 353 nM in data set [3]. For the same compound, the CC50 in data set [2] is > 100000 nM.
For `CS/C(Cl)=C(/NC(C)=O)[P+](c1ccccc1)(c1ccccc1)c1ccccc1.[O-][Cl+3]([O-])([O-])[O-]` the same measures were 100 nM, 115 nM and > 10000 nM.
For `CCCC[C@@H](C)[C@@H](O)[C@H]1C(=O)N[C@@H](C(C)C)C(=O)N(C)[C@H](SC)C(=O)N(C)[C@@H](CC(C)C)C(=O)N[C@@H](C(C)C)C(=O)N(C)[C@@H](CC(C)C)C(=O)N[C@@H](C)C(=O)N[C@H](C)C(=O)N(C)[C@@H](CC(C)C)C(=O)N(C)[C@@H](CC(C)C)C(=O)N(C)[C@@H](C(C)C)C(=O)N1C` the same measures were 51.7 nM, 32.5 nM and 5180 nM.
The matching figures for `O=C1c2cc([N+](=O)[O-])ccc2-n2c1nc1ccccc1c2=O`: 100 nM, 148 nM and > 10000 nM.
For `Cc1ccc(NC(=S)NCCO)cc1C`, the EC50 in data set [1] worked out at 1020 nM; in data set [3], 1810 nM. Further, the cytotoxic concentration (CC50) in data set [2] was > 100000 nM.
For `COc1ccc(C=Cc2cc[n+](C)cc2)cc1OC` the same measures were 1010 nM, 1820 nM and > 100000 nM.
For `NCCCNC(=O)COC(c1ccccc1)c1cccnc1Cl` (configuration not stated) the same measures were 100 nM, 81.7 nM and > 10000 nM.
Consider `O=C(Cc1ccccc1)NCc1nnc(SCC(=O)N2N=C(c3cccs3)CC2c2ccc(F)cc2)n1Cc1ccccc1` (configuration not stated), for which the results for the EC50 in data set [1] and in data set [3] were 984 nM and 8850 nM, respectively. Moreover, the CC50 in data set [2] was > 100000 nM.
For `CCC(C)NC(=O)c1cc(NC(=O)/C=C/c2ccc([N+](=O)[O-])cc2)ccc1N1CCN(c2ccccc2OC)CC1` (configuration not stated) the same measures were 54.3 nM, > 1250 nM and 5550 nM.
The matching figures for `CC(=O)OC1(C)CC(C)C(=O)C(C(O)CC2CC(=O)NC(=O)C2)C1` (configuration not stated): 58.7 nM, 74.7 nM and > 5890 nM.
Turning to `CC(Cl)=CC[N+]1(CC#Cc2cccc3ccccc23)CCOCC1`, the EC50 was 1000 nM in data set [1] and 1160 nM in data set [3]. Further, the CC50 in data set [2] is > 100000 nM.
With `CCCN1CCc2c(sc3nc(SCC(=O)c4ccccc4)nc(N)c23)C1`, the EC50 in data set [1] stood at 1010 nM; in data set [3], 1420 nM. In addition, in data set [2], the CC50 was > 100000 nM.
With `CCOC(=O)C1=C(C)NC2=C(C(=O)C(C(=O)OCC)C(c3ccccc3OC)C2)C1c1ccc(Cl)cc1` (configuration not stated), the figures for the EC50 in data set [1] and in data set [3] were 1000 nM and 5420 nM, respectively. The CC50 in data set [2] was > 100000 nM.
For `Cc1cc(Nc2ccc(Cl)c(C)c2)n2nc(C)nc2n1` the same measures were 1000 nM, 983 nM and > 100000 nM.
For `CN1CC=C(/C=C/c2c[nH]c3ccccc23)CC1` the same measures were 100 nM, 483 nM and > 10000 nM.
For `O=C(COc1cccc2ccccc12)NC1CCS(=O)(=O)C1` (configuration not stated) the same measures were 1000 nM, > 12500 nM and > 100000 nM.
As for `COc1cc(NCc2cnc(N)nc2N)cc(OC)c1`, the EC50 in data set [1] is 99.2 nM; in data set [3] it was 330 nM. Further, the CC50 in data set [2] is > 10000 nM.
On to `CNCC(O)c1ccc(Cl)c(Cl)c1` (configuration not stated), for which the concentration for a half-maximal effect (EC50) in data set [1] is 99.1 nM; in data set [3] it was 837 nM. Besides, the CC50 in data set [2] is > 10000 nM.
The matching figures for `COc1ccc(S(=O)(=O)N2CCN(C(=S)NC3CCCCC3)CC2)cc1`: 1000 nM, 8540 nM and > 100000 nM.
In the case of `CNC1=C(N(Cc2ccc(Cl)c(Cl)c2)C(C)=O)C(=O)c2ccccc2C1=O`, the EC50 was determined as 1.26 nM in data set [1] and 1.23 nM in data set [3]. Also, the CC50 in data set [2] was found to be 126 nM.
With `Cc1noc(C)c1S(=O)(=O)N(Cc1ccccc1)CC(O)CN1CCC(NC(=O)c2ccccc2Cl)C1` (configuration not stated), the concentration giving a half-maximal response (EC50) in data set [1] is 99.7 nM; in data set [3] it was 256 nM. Further, in data set [2], the half-maximal cytotoxic concentration (CC50) is > 10000 nM.
Consider `COc1ccc(NC(=O)Cn2ncc3ccccc32)cc1OC`, for which the concentration for a half-maximal effect (EC50) was 984 nM in data set [1] and > 1250 nM in data set [3]. Also, the CC50 in data set [2] was > 100000 nM.
For `C=CCNC(=O)c1cc2c(=O)n3cccc(C)c3nc2n(CCc2ccccc2)c1=N` the same measures were 982 nM, 702 nM and > 100000 nM.
The matching figures for `Cc1ccc(Cn2c(=N)n(CC(O)c3ccc(Cl)c(Cl)c3)c3ccccc32)cc1` (configuration not stated): 61.3 nM, 107 nM and 6000 nM.
The matching figures for `CC(C)(C)OC(=O)N1CCC(c2c(C(=O)Nc3cccc(C(F)(F)F)c3)cnn2-c2ccc(F)cc2F)CC1`: 990 nM, 1270 nM and > 100000 nM.
Turning to `CCOc1ccc(Nc2ccnc3cc(Cl)ccc23)cc1`, the EC50 worked out at 986 nM in data set [1] and 956 nM in data set [3]. Also, the CC50 in data set [2] is > 100000 nM.
For `O[C@@]1(c2cc3ccccc3s2)CN2CCC1CC2` the same measures were 101 nM, 177 nM and > 10000 nM.
The matching figures for `CCCCOc1cccc(C(=O)N(Cc2cccs2)c2ccc(OC)cc2)c1`: 62.1 nM, 124 nM and 6130 nM.
For `O=C(C=Cc1ccccc1)NNC(=O)c1cccnc1`, the concentration giving a half-maximal response (EC50) is 1010 nM in data set [1] and > 12500 nM in data set [3]. Moreover, the 50% cytotoxic concentration (CC50) in data set [2] is > 100000 nM.
The matching figures for `CCc1ccc(C(=O)C[n+]2cc(-c3ccc(C)cc3)n3c2CCC3)cc1`: 333 nM, 764 nM and 32700 nM.
Regarding `N#CC(=Cc1cn(Cc2ccc(Cl)cc2Cl)c2ccccc12)c1nc2ccccc2[nH]1`, the 50% effective concentration (EC50) in data set [1] came to 1020 nM; in data set [3] it was 270 nM. Further, in data set [2], the half-maximal cytotoxic concentration (CC50) is > 100000 nM.
The matching figures for `CC[n+]1c(/C=C/c2ccc(SC)cc2)ccc2ccccc21`: 102 nM, 43.6 nM and > 10000 nM.
The matching figures for `CN(C)CCN(C)Cc1cc(Br)cs1`: 1010 nM, > 2340 nM and > 100000 nM.
For `CCC(Sc1nnc(-c2ccc(C)cc2)c(-c2ccc(C)cc2)n1)C(=O)NCCOC` (configuration not stated) the same measures were 753 nM, 477 nM and 77000 nM.
Consider `O=C(Nc1ccccc1)NC1CC2CCCC(C1)N2CCc1ccccc1` (configuration not stated), for which the EC50 is 98.2 nM in data set [1] and 156 nM in data set [3]. Further, in data set [2], the CC50 is > 10000 nM.
The matching figures for `C(#Cc1ccccc1)C[N+]1(CCOc2ccccc2)CCCCC1`: 981 nM, 1440 nM and > 100000 nM.
For `CC(C)(C)CC(C)(C)Nc1c(-c2ccccc2OC(=O)c2ccccc2F)nc2ccccn12` the same measures were 97.9 nM, 1300 nM and > 10000 nM.
The matching figures for `O=C1c2ccccc2-c2nc3nnnn3nc21`: 98.7 nM, 239 nM and > 10000 nM.
As for `CN1CCCC1CCNCc1cc(-c2ccnc3cc(Cl)ccc23)ccc1O` (configuration not stated), the figures for the concentration for a half-maximal effect (EC50) in data set [1] and in data set [3] were 153 nM and 31.4 nM, respectively. Moreover, the midpoint of cytotoxicity in data set [2], the CC50, lay at 15200 nM.
For `CCN(CC)CCCN(Cc1cc2c(C)cc(C)cc2[nH]c1=O)C(=S)NCCCN(C)C`, the values for the concentration giving a half-maximal response (EC50) in data set [1] and in data set [3] were 1000 nM and 2090 nM, respectively. Moreover, the CC50 in data set [2] was > 100000 nM.
On to `CN1CCCC1CCNc1ncc(C(=O)NCc2ccccc2)c(NCC2CCCCC2)n1` (configuration not stated), for which the EC50 in data set [1] is 100 nM; in data set [3], 54.4 nM. For the same compound, the CC50 in data set [2] was > 10000 nM.
For `Nc1ccc2nc(-c3cccc(-c4nc5ccc(N)cc5s4)c3)sc2c1` the same measures were 995 nM, 283 nM and > 100000 nM.
On to `Cc1cccc(NC(=O)c2sc3nc4c(c(-c5cccs5)c3c2N)CCCCC4)c1`, for which the EC50 in data set [1] was 995 nM; in data set [3], > 12500 nM. Besides, the CC50 in data set [2] was > 100000 nM.
For `OC(CNCC1COc2ccccc2O1)c1ccccc1` (configuration not stated) the same measures were 1000 nM, > 12200 nM and > 100000 nM.
For `O=C(CCl)Nc1ccc(N2CCCCC2)cc1`, the figures for the EC50 in data set [1] and in data set [3] were 417 nM and 797 nM, respectively. The compound further had a CC50 in data set [2] of 41200 nM.
For `O=c1c2c([nH]c3ccccc13)CCCC2` the same measures were 991 nM, 628 nM and > 100000 nM.
For `CC(=O)NC1=NN(C(C)=O)C(c2ccc(Br)cc2)S1` (configuration not stated) the same measures were 976 nM, > 7540 nM and > 100000 nM.
For `Oc1ccccc1-c1nc2ncccn2c1Nc1cccc(C(F)(F)F)c1` the same measures were 1020 nM, 2120 nM and > 100000 nM.
As to `COc1cc(NC(C)CCCN(Cc2ccc(N(C)C)cc2)C(=O)C(Cl)Cl)c2ncccc2c1` (configuration not stated), the EC50 in data set [1] was found to be 66.6 nM; in data set [3], 948 nM. For the same compound, the CC50 in data set [2] was > 6790 nM.
`O=c1c2sccc2nc(SCc2cccc([N+](=O)[O-])c2)n1-c1ccc(Br)cc1`: the EC50 in data set [1] stood at 1020 nM; in data set [3], 3310 nM. For the same compound, the CC50 in data set [2] was > 100000 nM.
For `COc1ccc(-c2c[n+](Cc3ccccc3Cl)c3n2CCC3)cc1` the same measures were 532 nM, 578 nM and 52500 nM.
Take `N#Cc1c(N)nc(SCC(=O)c2ccc(Br)cc2)c(C#N)c1-c1ccccc1`: the EC50 in data set [1] amounted to 560 nM; in data set [3], 581 nM. Further, the CC50 in data set [2] is > 56600 nM.
For `O=C(N/C(=C/C=C/c1ccccc1)C(=O)N1CCOCC1)c1ccccc1` the same measures were 98.5 nM, > 1250 nM and > 10000 nM.
The matching figures for `O=C(O)c1ccc2c(c1)N=CN(C1CCCCC1)C2`: 98.3 nM, 268 nM and > 10000 nM.
